US20240336577A1, “PYRAZINE COMPOUND, AND METHOD OF PREPARATION AND USE THEREOF” (SHENZHEN OLIVE BIOPHARMACEUTICALS CO., LTD, priority 2020, published 2024)

Key:
Assay type in all cases: in vivo
[1] = test system: ALS (SOD-G93A) transgenic mice; assay: Limb grip force test in ALS transgenic mice; details: different dosages of OLB-1, OLB-2, riluzole 5 mg/kg, FIG. 7
Procedure: The limb grip force test is used directly to assess muscle strength in mice. […] After the start of administration, the grip force of the mice was tested every two weeks, and the measurement was repeated three times for each mouse, and the maximum among the three results was taken as a maximum grip force of the mice. […] Data were presented as mean±SEM; n=10 per group. One-way ANOVA and multiple range test show differences between the two groups. **p<0.01, ***p<0.001 vs. WT (normal control) group; #p<0.05, ##p<0.01 vs. ALS (SOD-G93A) group.

[2] = test system: 6-OHDA Parkinson's disease rats; assay: APO-induced rotations in 6-OHDA Parkinson's disease rats; details: APO-induced 6-OHDA rats, 2 weeks of treatment; different dosages of OLB-1, OLB-2; levodopa 25 mg/kg; FIG. 8
Text: There is no rotation in a sham-operated group, and there is no significant difference between the groups injected with 6-OHDA, and there are about 180 rotations. […] Data were presented as mean±SEM; n=9-10 per group. One-way ANOVA and multiple range test were adopted to show differences between the two groups. *p<0.05, **p<0.01 vs. before 6-OHDA group.

[3] = test system: db/db mice; assay: Glucose and lipid metabolism in db/db mice, 56 d administration; details: once/d 56 d, TMP 5.0 mg/kg, mean±SEM, n=6; for Creatinine / Total cholesterol / Triglyceride / Urea: Losartan 10 mg/kg; for Creatinine / Total cholesterol / Triglyceride / Urea / Glucose determination / High-density lipoprotein cholesterol / Low-density lipoprotein cholesterol: OLB-1/OLB-2 13.32 mg/kg; for Glycated hemoglobin / Glucose determination / High-density lipoprotein cholesterol / Low-density lipoprotein cholesterol: metformin 225 mg/kg/d; for Glycated hemoglobin: OLB-1/OLB-2 13.32 mg/kg (0.037 mmol/kg)
Procedure: Mice of a normal control group and model mice were given normal saline 10 ml/kg/d, metformin hydrochloride enteric-coated tablets 225 mg/kg/d, Losartan 10 mg/kg, TMP (5.0 mg/kg, 0.037 mmol/kg), and OLB-1 and OLB-2 (13.32 mg/kg, 0.037 mmol/kg), at a volume of 10 mL/kg, once/d, for continuous administration of 56 d, blood lipids and blood glucose related indexes were measured after blood collection. Data were presented as mean±SEM; n=6 per group. One-way ANOVA and multiple range test were adopted to show differences between the two groups. a, p<0.05 vs. db/db group; c, p<0.001 vs. db/db group.

[4] = test system: 5*FAD mice; assay: Memory impairment in 5*FAD mice, electrical jumping (errors jumping off the platform); details: 6-month-old 5*FAD mice treated 3 months, low and high dosage; FIG. 5
Procedure: After 6-month-old 5*FAD mice were treated with OLB-1 and OLB-2 for 3 months, the number of errors that the mice jumped off the platform was detected by electrical jumping. 5*FAD mice were treated with low-dosage and high-dosage OLB-1 (low dosage: 2.31 mg/kg, 0.007 mmol/kg; high dosage: 11.70 mg/kg, 0.037 mmol/kg) and OLB-2 (low dosage: 2.3 mg/kg, 0.007 mmol/kg; high dosage: 11.67 mg/kg, 0.037 mmol/kg) and TMP (5.0 mg/kg, 0.037 mmol/kg, the same below). Data were presented as mean±SEM; n=10 per group. One-way ANOVA and multiple range test were adopted to show differences between the two groups. ***p<0.001 vs. WT group; #p<0.05, ##p<0.01 vs. 5*FAD group.

| SMILES | limb grip force [1] | number of rotations [2] | Creatinine [3] | Total cholesterol [3] | Triglyceride [3] | Urea [3] | Glycated hemoglobin [3] | Glucose determination [3] | High-density lipoprotein cholesterol [3] | Low-density lipoprotein cholesterol [3] | memory impairment (number of errors jumping off the platform) [4] |
| --- | --- | --- | --- | --- | --- | --- | --- | --- | --- | --- | --- |
| Cc1nc(C)c(COC(=O)OCCc2ccc(O)cc2)nc1C [OLB-1] | effectively increase the limb force | effectively reduce the number of rotations | 48.7 ± 3.68(a) μmol/L | 8.36 ± 2.63(c) mM | 10.88 ± 0.92(b) mg/dL | 8.03 ± 0.61(c) mmol/L | 643.06 ± 61.53(c) nmol/L | 25.99 ± 4.46(c) mM | 1.81 ± 0.15(b) mM | 0.69 ± 0.04(c) mM | significantly improve memory impairment |
| Cc1nc(C)c(CNC(=O)OCCc2ccc(O)cc2)nc1C [OLB-2] | effectively increase the limb force | effectively reduce the number of rotations | 46.28 ± 2.76(b) μmol/L | 7.38 ± 0.34(c) mM | 10.65 ± 0.54(b) mg/dL | 7.48 ± 0.35(c) mmol/L | 595.38 ± 52.47(c) nmol/L | 26.61 ± 1.15(c) mM | 1.87 ± 0.18(b) mM | 0.51 ± 0.03(c) mM | significantly improve memory impairment |
